Series [1] has as its system MCF7 cells. Description: Cell viability (AlamarBlue), MCF7 breast cancer cells. It counts as cell-based. Conditions: Homo sapiens, 72 hours of treatment. On the procedure: (§1) In another exemplary method, half maximal effective concentration (EC50) was determined for some compounds and their isomers as disclosed herein in a variety of human cancer cell lines. In brief, cells from two prostate cancer cell lines (LNCaP, 22RV1), one glioblastoma cell line (U87), one breast cancer cell line (MCF7), a glioma cell line (LN18), a normal prostate cell line (RWPE1), and a glioblastoma cell line (T98G) were plated in a multi-well plate. After 24 hours, one of the compounds herein was added to the well at increasing concentrations. After 72 hours of treatment, cell viability was assessed using AlamrBlue® (Invitrogen) and fluorescence was read using the CLARIOstar Plus Multilabel Plate Reader (BMG Labtech). Samples were normalized to no treatment controls. EC50 values were determined using GraphPad Prism.
A general note: Alamar Blue is a resazurin reagent that responds to reducing activity.

Series [2] concerns U87 cells. Description: Cell viability (AlamarBlue), U87 glioblastoma cells. Conditions: 72 hours of treatment. It counts as cell-based, human. An outline of the steps:
(§2)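 Cells were plated, and compounds were added at increasing concentrations after 24 h. Viability was measured by AlamarBlue fluorescence after 72 h of treatment and normalized to untreated controls to fit EC50.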

The nature of series [3]: Plasma and brain tissue levels after oral dose, brain tumor xenograft mice. In kind it is in vivo, CrTac:NCr-Foxn1nu athymic nude mouse. The note with it: CrTac:NCr-Foxn1nu athymic nude, single oral dose 100 mg/kg. On the procedure:
In another exemplary method, levels of Compound 19A were determined in plasma and brain tissue following administration. For these studies, a CrTac:NCr-Foxn1^nu athymic nude mouse strain was used as an acceptable mouse model. For these experiments, CrTac:NCr-Foxn1^nu athymic nude mouse received […] of tumors implanted into the brain tissues. Compound 19A was then administered to the mice orally as a homogenous suspension in DMSO: (PEG 400: PVP=95:5)=1:4. A single dose of 100 mg/kg of Compound 19A was administered in this manner. Concentrations of the Compound 19A in plasma and brain tissue (after extraction) were measured using HPLC-MS quantitation.
FIG. 51 and Table 8 illustrate increasing concentrations of Compound 19A in both the left, healthy brain tissue and the right experimental brain tissue containing tumor as well as in plasma over time.

In series [4] the test system is 22RV1 cells. Description: Cell viability (AlamarBlue), 22RV1 prostate cancer cells. In kind it is cell-based, human. Conditions: 72 hours of treatment. An outline of the steps:
as §2

The test system of series [5] is RWPE1 cells. Put plainly: Cell viability (AlamarBlue), RWPE1 normal prostate cells. It counts as cell-based, human. On the set-up: key to EC50 (μM) in RWPE1 cells: Inactive: less than 50% inhibition at the highest concentration tested at 50 μM. The note with it: 72 hours of treatment, normal prostate cell line. An outline of the steps:
as §2

The test system of series [6] is LNCaP cells. Put plainly: Cell viability (AlamarBlue), LNCaP prostate cancer cells. It counts as cell-based, human. Conditions: Homo sapiens, LNCaP, 72 h, 72 hours of treatment. An outline of the steps: as §2
For series [7], the system named is LN18 glioblastoma cancer cells. Description: Combination with Temozolomide, Bliss synergy in LN18 cells. It counts as cell-based. Conditions: Temozolomide 0 to 1000 uM, compound 0.625 to 10 uM. The procedure: Synergy was calculated with the Bliss independence model. Compounds were combined at concentrations of 0 to 1000 uM for Temozolomide and 0.625 to 10 uM for compounds 19 and 59.

The subject of series [8] is 22Rv1 prostate cancer cells. Put plainly: Combination with Rabusertib, Bliss synergy in 22Rv1 cells. It counts as cell-based. Conditions: Rabusertib 0 to 30 uM, compound 0.625 to 5 uM. On the procedure:
Synergy was calculated with the Bliss independence model. Compounds were combined at concentrations of 0 to 30 uM for Rabusertib and 0.625 to 5 uM for compounds 73 and 76.

In series [9] the test system is LN18 cells. Description: Cell viability (AlamarBlue), LN18 glioma cells. It counts as cell-based. The note with it: Homo sapiens, LN-18, 72 hours of treatment. On the procedure: as §1
The test system of series [10] is tubulin. Description: Tubulin polymerization assay. In kind it is biochemical. Conditions: 5 uM (FIG. 41A, 41C) or 1 uM (FIG. 41B). On the procedure:
FIG. 41A-41C represent exemplary experiments illustrating inhibition of tubulin polymerization. FIG. 41A illustrates effects of compounds 19, 73, 86, 93 and 94 at 5 uM concentration. FIG. 41B illustrates effects of compounds 93, 94, 95 and 96 at 1 uM concentration.
FIG. 41C illustrates effects of compounds 73, 86, 87 and 88 at 5 uM concentration in accordance with certain embodiments of the present disclosure. Colchicine and vincristine are positive controls.
FIG. 42A-42B represent exemplary experiments illustrating inhibition of tubulin polymerization. FIG. 42A illustrates effects of compound 19 at 0.3, 1, 3 and 6 uM concentrations.
FIG. 42B illustrates effects of compound 73 at […] concentration in accordance with certain embodiments of the present disclosure. Colchicine and nocodazole are positive controls.
In another exemplary method, the effect of the compounds herein on tubulin polymerization was determined. FIG. 41A illustrates effects of compounds 19, 73, 86, 93 and 94 at 5 uM concentration, FIG. 41B illustrates effects of compounds 93, 94, 95 and 96 at 1 uM concentration, or FIG. 41C illustrates effects of compounds 87 and 88 at 5 uM concentration in accordance with certain embodiments of the present disclosure. Colchicine and vincristine are positive controls.
The dose dependent effect of compounds 19 and 73 on tubulin polymerization was also determined. FIG. 42A illustrates effects of compound 19 at 0.3, 1, 3 and 6 uM concentrations, and FIG. 42B illustrates effects of compound 73 at 0.1, 0.3, 1, 3 and 5 uM concentration in accordance with certain embodiments of the present disclosure. Colchicine and nocodazole are positive controls.

A short description of series [11]: Kinetic solubility in aqueous PBS buffer (HPLC-MS). In kind it is physicochemical. The note with it: kinetic from dmso stock, DMSO stock mixed with aqueous PBS buffer, filtered, read-out: Kinetic Solubility. An outline of the steps:
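A concentrated DMSO stock was mixed with aqueous PBS buffer and filtered. The filtrate was quantified against an HPLC-MS calibration curve.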

Series [12] relates to T98G cells. Description: Cell viability (AlamarBlue), T98G glioblastoma cells. Conditions: Homo sapiens, 72 hours of treatment. In kind it is cell-based. On the procedure:
as §1

Where [13] appears, read: mouse, brain tissue (left, healthy), read-out: Brain Tissue Healthy, Left concentration.
The mark [14] stands for this setting: mouse, brain tissue (right, containing tumor), read-out: Brain Tissue Tumor, right concentration.
[15] abbreviates: plasma, tumor-bearing nude mouse, read-out: Plasma concentration.

A word on the EC50: it is the concentration needed to bring the measured effect to its halfway point. One may read the solubility (kinetic) as the concentration staying in solution when a stock, usually in DMSO, is diluted into the medium.

Values after ≈ are worked out from the molar mass of the structure shown. Read-outs that look alike come from different tables or passages of the source.

Consider `COC1CC(C(=O)NC(=O)Nc2ccc(Oc3ccc(Cl)cn3)c(C)c2)C1` (single isomer, unassigned) [Compound 19A, 1-{4-[(5-chloropyridin-2-yl)oxy]-3-methylphenyl}-3-(3-methoxycyclobutanecarbonyl) urea], for which the concentration giving a half-maximal response (EC50) in series [1] turned out to be 2.8 µM; in series [2], 2.2 µM; in series [4], 0.95 µM; in series [6], 0.87 µM. In addition, the concentration at 0.5 h amounted to 767 ng/g in series [3] (setting [13]), 828 ng/g in series [3] (setting [14]) and 973 ng/mL in series [3] (setting [15]). The concentration at 1 h in [3] (setting [13]) is 1230 ng/g; in series [3] (setting [14]), 1460 ng/g; in series [3] (setting [15]), 1340 ng/mL. The concentration at 6 h in series [3] (setting [13]) turned out to be 1460 ng/g; in series [3] (setting [14]) it was 1520 ng/g; in [3] (setting [15]) it was 1510 ng/mL. Also, the “EC50 (μM) in RWPE1 cells” value in series [5] was “Inactive”.

Regarding `COC1CC(C(=O)NC(=O)Nc2ccc(Oc3nc(C)c(C)s3)c(C)c2)C1` (centres unmarked) [Compound 59, N-((4-((4,5-dimethylthiazol-2-yl)oxy)-3-methylphenyl)carbamoyl)-3-methoxycyclobutane-1-carboxamide], the “Bliss Synergy value, combination with Temozolomide” value in series [7] (LN18 cells, Bliss independence model) was determined as 20.0. Further, the “effect of combination with Temozolomide on cancer cell viability” value in series [7] is given as “synergistic decrease in cancer cell viability”. Besides, the EC50 was found to be 0.002 µM in [2] (Homo sapiens, U-87 MG, 72 h); 0.08 µM in series [4] (Homo sapiens, 22Rv1, 72 h); 0.27 µM in series [6].

In the case of `COC1CC(C(=O)NC(=O)Nc2cc(C)c(Oc3ccc(Cl)cn3)c(F)c2)C1` (centres unmarked) [Compound 76, N-((4-((5-chloropyridin-2-yl)oxy)-3-fluoro-5-methylphenyl)carbamoyl)-3-methoxycyclobutane-1-carboxamide], the EC50 in [2] (Homo sapiens, U-87 MG, 72 h) worked out at 0.1 µM. Further, the “Bliss Synergy value, combination with Rabusertib” value in series [8] (22Rv1 cells, Bliss independence model) came to 15.3. In [8], the “effect of combination with Rabusertib on cancer cell viability” value was “synergistic decrease in cancer cell viability”.

Regarding `COC12CC(C(=O)NC(=O)Nc3ccc(Oc4ccc(Cl)cn4)c(C)c3)(C1)C2` [Compound 84, N-((4-((5-chloropyridin-2-yl)oxy)-3-methylphenyl)carbamoyl)-3-methoxybicyclo[1.1.1]pentane-1-carboxamide], the EC50 stood at 0.16 µM in series [2] (Homo sapiens, U-87 MG, 72 h) and 0.01 µM in [9].

As for `COC12CC(C(=O)NC(=O)Nc3ccc(Oc4ccccn4)c(C)c3)(C1)C2` [Compound 86, 3-methoxy-N-((3-methyl-4-(pyridin-2-yloxy)phenyl)carbamoyl)bicyclo[1.1.1]pentane-1-carboxamide], the “effect on tubulin polymerization” value in series [10] is reported as “significantly inhibit tubulin polymerization”. In series [2] (Homo sapiens, U-87 MG, 72 h), this compound came in with a 50% effective concentration (EC50) of 0.26 µM.

On to `COC12CC(C(=O)NC(=O)Nc3ccc(Oc4ncccn4)c(C)c3)(C1)C2` [Compound 87, 3-methoxy-N-((3-methyl-4-(pyrimidin-2-yloxy)phenyl)carbamoyl)bicyclo[1.1.1]pentane-1-carboxamide], for which the kinetic solubility in series [11] worked out at 27.5 µM (≈ 10.1 µg/mL). Moreover, the “effect on tubulin polymerization” value in series [10] is “significantly inhibit tubulin polymerization”. The compound further returned an EC50 in series [2] (Homo sapiens, U-87 MG, 72 h) of 1.2 µM.

As for `COC12CC(C(=O)NC(=O)Nc3ccc(Oc4ncc(F)cn4)c(C)c3)(C1)C2` [Compound 88, N-((4-((5-fluoropyrimidin-2-yl)oxy)-3-methylphenyl)carbamoyl)-3-methoxybicyclo[1.1.1]pentane-1-carboxamide], the kinetic solubility in series [11] was 10.9 µM (≈ 4.21 µg/mL). Moreover, in [10], the “effect on tubulin polymerization” value was “significantly inhibit tubulin polymerization”. For the same compound, the EC50 in series [2] (Homo sapiens, U-87 MG, 72 h) is 1.45 µM.

Turning to `COC12CC(C(=O)NC(=O)Nc3cc(C)c(Oc4ccc(F)cn4)c(F)c3)(C1)C2` [Compound 91, N-((3-fluoro-4-((5-fluoropyridin-2-yl)oxy)-5-methylphenyl)carbamoyl)-3-methoxybicyclo[1.1.1]pentane-1-carboxamide], the EC50 in series [12] is 0.167 µM; in series [2] (Homo sapiens, U-87 MG, 72 h), 0.63 µM; in series [9], 0.087 µM.

Consider `COC1CC(C(=O)NC(=O)Nc2ccc(C)c(Oc3ccccn3)c2)C1` (centres unmarked) [Compound 94, 3-methoxy-N-((4-methyl-3-(pyridin-2-yloxy)phenyl)carbamoyl)cyclobutane-1-carboxamide], for which the solubility (kinetic) in [11] was 11.8 µM (≈ 4.19 µg/mL). In [10], the “effect on tubulin polymerization” value is recorded as “significantly inhibit tubulin polymerization”. The same compound had an EC50 in [2] (Homo sapiens, U-87 MG, 72 h) of 0.045 µM.

On to `COC1CC(C(=O)NC(=O)Nc2ccc(C)c(Oc3ccc(F)cn3)c2)C1` (centres unmarked) [Compound 95, N-((3-((5-fluoropyridin-2-yl)oxy)-4-methylphenyl)carbamoyl)-3-methoxycyclobutane-1-carboxamide], for which the solubility (kinetic) in [11] stood at 7.2 µM (≈ 2.69 µg/mL). Also, the “effect on tubulin polymerization” value in series [10] is reported as “significantly inhibit tubulin polymerization”. In [2] (Homo sapiens, U-87 MG, 72 h), the midpoint of the response, the EC50, lay at 0.014 µM.

As to `COC1CC(C(=O)NC(=O)Nc2ccc(C)c(Oc3ncccn3)c2)C1` (centres unmarked) [Compound 96, 3-methoxy-N-((4-methyl-3-(pyrimidin-2-yloxy)phenyl)carbamoyl)cyclobutane-1-carboxamide], the kinetic solubility in series [11] amounted to 14.8 µM (≈ 5.27 µg/mL). The “effect on tubulin polymerization” value in [10] is reported as “significantly inhibit tubulin polymerization”. The EC50 in series [2] (Homo sapiens, U-87 MG, 72 h) came to 0.035 µM.

Values taken from patent publication US12404242B2, “Compositions and methods for making and using small molecules in the treatment of cancer” (Reglagene, Inc., priority 2021, dated 2025).
